Experimental data reported in ChEMBL document CHEMBL2157940, “Low molecular weight phosphotyrosine protein phosphatases as emerging targets for the design of novel therapeutic agents” (J Med Chem, 2012).

Key:
[1] = biological target: T1, Low molecular weight phosphotyrosine protein phosphatase (Bos taurus) (UniProt P11064); assay: Inhibition of bovine kidney LMW-PTPase at 400 uM using pNPP substrate
T1 sequence (whole entry): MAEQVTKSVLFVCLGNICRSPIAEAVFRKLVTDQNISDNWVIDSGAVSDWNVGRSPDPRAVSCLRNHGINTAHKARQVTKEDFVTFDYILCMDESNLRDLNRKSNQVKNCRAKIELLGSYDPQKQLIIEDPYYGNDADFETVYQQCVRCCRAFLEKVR

[2] = biological target: T2, Low molecular weight phosphotyrosine protein phosphatase (Homo sapiens, UniProt P24666); assay: Inhibition of human LMW-PTPase isoform 1
T2 sequence (P24666 whole entry): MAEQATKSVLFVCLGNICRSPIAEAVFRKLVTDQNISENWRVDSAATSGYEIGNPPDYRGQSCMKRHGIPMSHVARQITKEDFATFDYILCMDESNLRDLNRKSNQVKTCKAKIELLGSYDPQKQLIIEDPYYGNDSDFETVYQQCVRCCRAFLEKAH

[3] = biological target: T2, Low molecular weight phosphotyrosine protein phosphatase; assay: Inhibition of human LMW-PTPase isoform 2
[4] = biological target: T1, Low molecular weight phosphotyrosine protein phosphatase (Bos taurus); assay: Activation of bovine kidney LMW-PTPase at 400 uM using pNPP substrate
[5] = Inhibition of Mycobacterium tuberculosis LMW-PTP
[6] = biological target: T3, Tyrosine-protein phosphatase non-receptor type 1 (Homo sapiens, UniProt P18031); assay: Inhibition of human PTP1B
T3 sequence (P18031 whole entry): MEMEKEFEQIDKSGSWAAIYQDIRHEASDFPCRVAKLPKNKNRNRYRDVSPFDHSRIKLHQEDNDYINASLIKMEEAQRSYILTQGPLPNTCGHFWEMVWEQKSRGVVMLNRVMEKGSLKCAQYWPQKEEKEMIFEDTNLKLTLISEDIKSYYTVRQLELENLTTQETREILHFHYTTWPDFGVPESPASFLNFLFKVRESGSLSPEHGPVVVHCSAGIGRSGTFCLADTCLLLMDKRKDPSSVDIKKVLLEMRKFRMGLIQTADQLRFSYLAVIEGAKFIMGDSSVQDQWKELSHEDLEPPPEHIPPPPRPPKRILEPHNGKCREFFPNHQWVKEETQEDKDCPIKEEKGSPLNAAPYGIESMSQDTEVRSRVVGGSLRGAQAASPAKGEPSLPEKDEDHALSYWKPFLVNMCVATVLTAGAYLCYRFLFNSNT

Row | Compound | inhibition [1] [%] | IC50 [2] [µM] | IC50 [3] [µM] | other results
1 | Oc1cc(O)c2c(c1)OC(c1ccc(O)c(O)c1)C(O)C2 (configuration not stated) | 14 |  |  | 
2 | O=P(O)(O)CCc1cncc2cc[nH]c12 |  | 1790 | 2760 | 
3 | O=c1c(O)c(-c2ccc(O)c(O)c2)oc2cc(O)cc(O)c12 |  |  |  | fold change (FC) [4]: 2.6
4 | O=P(O)(O)CCc1cccc2ccccc12 |  | 14000 | 10000 | 
5 | O=c1c(O)c(-c2cc(O)c(O)c(O)c2)oc2cc(O)cc(O)c12 | 14 |  |  | 
6 | O=c1c(O)c(-c2ccc(O)cc2O)oc2cc(O)cc(O)c12 | 35 |  |  | 
7 | Nc1ccccc1CCP(=O)(O)O |  | 250 | 1400 | 
8 | CCCCCCCCCCCCC[C@H]1OC(=O)[C@H](COCc2ccccc2)NC(=O)[C@H]([C@@H](C)O)NC(=O)[C@H](C(C)C)NC(=O)[C@H]1C |  |  |  | IC50 [5]: 8.8 µM
9 | Nc1ccncc1CCP(=O)(O)O |  | 300 | 2210 | 
10 | C/C(=C1\C=CC=N1)c1ccc(-c2ccc[nH]2)o1 |  |  |  | IC50 [5]: 9.4 µM
11 | O=C(O)c1ccc(COc2ccc(/C=C3\S/C(=N\c4ccccc4)N(Cc4ccc(C(=O)O)cc4)C3=O)cc2)cc1 |  | 5.8 |  | IC50 [6]: 0.55 µM
12 | Nc1ccccc1/C=C/P(=O)(O)O |  | 5300 | 13000 | 
13 | O=C(CCc1ccc(O)cc1)c1c(O)cc(O)cc1O | 14 |  |  | 
14 | C[C@@H]1O[C@@H](OC[C@H]2O[C@@H](Oc3c(-c4ccc(O)c(O)c4)oc4cc(O)cc(O)c4c3=O)[C@H](O)[C@@H](O)[C@@H]2O)[C@H](O)[C@H](O)[C@H]1O | 14 |  |  | 
15 | O=C(O)c1ccc(COc2cccc(/C=C3\S/C(=N\c4ccccc4)N(Cc4ccc(C(=O)O)cc4)C3=O)c2)cc1 |  | 0.5 | 0.22 | 
